Test results taken from patent publication US9540299B2, “MTOR-independent activator of TFEB for autophagy enhancement and uses thereof” (Hong Kong Baptist University, priority 2015, dated 2017).

Experiments:
SH-SY5Y cells = experiment: Real-time PCR of autophagy and lysosome genes in SH-SY5Y cells; assay type: cell-based, human; settings: 1 μM, 12 h
Description: Various gene expressions in Hela cells (FIG. 7A) and SH-SY5Y cells (FIG. 7B) after treated with C1 (1 μM) for 12 h. mRNA transcript abundance is assessed by real-time PCR using specific primers for the indicated genes. Relative quantification (RQ) is presented as means±SD of three independent experiments. FIG. 7C is western blot showing the protein levels of autophagy marker (LC3-II), TFEB and lysosome markers (LAMP1, CTSD) in Hela and SH-SY5Y cells having treated with C1 (0.5, 1 μM) or sucrose (100 mM) for 12 h. The relative intensity of autophagy marker (LC3-II), TFEB and lysosome markers (LAMP1, CTSD) normalized to that of ACTB/β-actin in Hela cells (FIG. 7D) and SH-SY5Y cells (FIG. 7E). Data are presented as the mean±SD from three independent experiments. *p<0.05 vs. the control (0.1% DMSO). […] Autophagy-enhancing effect of C1 is TFEB-dependent. Data are presented as the mean±SD from three independent experiments. *p<0.05 vs. the control. N. S.=not significant.
Total RNA is extracted from cells and tissues using RNeasy Plus Mini Kit (74134, Qiagen). Reverse transcription is performed using High-Capacity cDNA Reverse Transcription Kit (4368814, Life Technologies). […] Fold changes are calculated using the ΔΔCT method and the results were normalized against an internal control (GAPDH or ACTB).

endogenous SNCA = experiment: Chronic (21 days) oral administration in SD rats: autophagy markers, SNCA, tolerability; assay type: in vivo; settings: oral 10 mg/kg for 21 days
Description: SD rats (n=6 per group) are orally administered by gavage with C1 (10 mg/kg per day) or vehicle (1% CMC-Na) for 21 days. An additional dosage of C1 is given for 6 h before the rats are killed. FIG. 11A is western blots showing the protein levels as indicated in the liver, frontal cortex and striatum. FIG. 11B-11D are quantitative data protein levels in the liver frontal cortex and striatum. Data are presented as the mean±SD (n=6). *p<0.05 vs. the vehicle treatment.
(§1) All animal care and procedures are approved by the Hong Kong Baptist University Committee on the Use of Human and Animal Subjects in Teaching and Research. Adult male Sprague-Dawley (SD) rats weighted 350-400 g are maintained on ad libitum food and water with a 12-hour light/dark cycle in a controlled environment. For short-term treatment, rats (n=6 per group) are orally administered by gavage with C1 (10 mg/kg and 25 mg/kg per day) or vehicle (1% sodium carbonyl methylcellulose (CMC-Na)) for 24 h. For chronic treatment, C1 (10 mg/kg per day) is given by gavage to rats for 21 days. At the end of each treatment, an additional dosage of C1 is given for 6 h before the rats are killed. Livers and major brain regions dissected are snap-frozen in liquid nitrogen.
(§2) Cells are lysed on ice in 1× Lysis Buffer (9803, Life Technologies) with complete protease inhibitor mixture (04693124001, Roche Applied Science). Animal tissues are homogenized in nine volumes of ice-cold PBS supplemented with protease inhibitors. Cytosolic and nuclear fractions are isolated using protocols similar to those described previously. Anti-Flag or TFEB antibody is added to the whole cell lysates and Dynabeads® Protein G (10003D, Life Technologies) is used for immunoprecipitation. Proteins are separated by 10-15% SDS-PAGE, transferred, and blotted with the antibodies described. The blots are then incubated with secondary antibodies or the Clean-Blot IP Detection Reagent (21230, Thermo Scientific) at room temperature for 1 h. The protein signals are detected by ECL kit (32106, Pierce) and quantified using ImageJ software.
(§3) Rats receive oral administration of C1 (10 mg/kg) for 21 days. Another dose of C1 is given for 6 h and the average concentration of C1 in brain tissues is 0.849±0.302 μg/g. Then the autophagy markers in the livers and brains are analyzed. Chronic C1 treatment increases the levels of LC3-II in the livers (FIGS. 11 A and B). […] During the treatment procedure, no changes in body weight or behavior abnormalities are observed.

[1] = system: TFEB and autophagy in rats brains; experiment: Short-term oral administration in SD rats: TFEB, autophagy and MTOR markers in liver and brain; assay type: in vivo
Description: SD rats (n=6 per group) are orally administered by gavage with C1 (10 mg/kg and 25 mg/kg per day) or vehicle (1% CMC-Na) for 24 h. An additional dosage of C1 was given for 6 h before the rats were killed. […] FIG. 9B-9D are bar charts showing quantitative data of various protein expressions in the liver, frontal cortex and striatum. Data are presented as the mean±SD (n=6). *p<0.05 vs. the vehicle treatment. […] Relative quantification (RQ) is presented as means±SD (n=4). *p<0.05 vs. the vehicle treatment.
SD rats (n=6 per group) are orally administered by gavage with C1 (10 mg/kg and 25 mg/kg per day) or vehicle (1% CMC-Na) for 24 h. An additional dosage of C1 is given for 6 h before the rats are killed. […] Data are presented as the mean±SD (n=6). FIG. 10B is western blot (left) and quantitative data (right) showing TFEB nuclear translocation after C1 treatment (n=4).
as §1
Total RNA is extracted from cells and tissues using RNeasy Plus Mini Kit (74134, Qiagen). Reverse transcription is performed using High-Capacity cDNA Reverse Transcription Kit (4368814, Life Technologies). Autophagy and lysosome gene primers are synthesized by Life Technologies and the oligonucleotide sequences are listed in Table 1. Real-time PCR is carried out with the Fast SYBRR Green Master Mix (4385612, Life Technologies) using the ViiA™ 7 Real-Time PCR System (Life Technologies). Fold changes are calculated using the ΔΔCT method and the results were normalized against an internal control (GAPDH or ACTB).
as §2

[2] = rat, in vivo, po
Description: as §1
The average concentration of C1 in brain tissues is 0.26±0.063 μg/g determined by HPLC after oral administration of C1 (10 mg/kg) for 6 h.
as §3

[3] = Acute toxicity by single-dose intravenous tail vein injection; settings: Sprague-Dawley, rat, in vivo, rats, read-out: medium lethal dose (LD50)
[4] = short-term oral 10 and 25 mg/kg

Compound: COc1ccccc1/C=C/C(=O)/C=C/c1ccccc1OC [C1, 1,5-bis(2-methoxyphenyl)penta-1,4-dien-3-one]
- mRNA of TFEB and genes involved in autophagy and lysosome biogenesis (SH-SY5Y cells): up-regulated
- body weight or behavior abnormalities during treatment (endogenous SNCA): no changes
- histological evaluation of major organs (liver, lungs, kidneys, and pancreas) (endogenous SNCA): do not reveal any morphological abnormalities
- levels of LC3-II in the livers (endogenous SNCA): increases
- levels of TFEB and LC3-II in frontal cortex and striatum (endogenous SNCA): significantly increases
- levels of endogenous SQSTM1/p62 and SNCA in rats' brains (endogenous SNCA): significantly decrease
- interaction between endogenous TFEB and MTOR in the frontal cortex ([1]; oral 25 mg/kg): significantly inhibited
- phosphorylation of MTOR and RPS6KB1 in frontal cortex ([1]; oral 25 mg/kg): significantly increases
- expression of LC3-II and TFEB in the liver, frontal cortex and striatum ([1]; short-term oral 10 mg/kg and 25 mg/kg): dose-dependently increases
- expression of LAMP1 in the brains [1, 4]: dose-dependently increases
- nuclear translocation of TFEB in the brains (western blot) [1, 4]: dose-dependently promotes
- levels of endogenous SQSTM1/p62 or SNCA in the brains ([1]; short-term oral administration): does not affect
- mRNA of TFEB and several autophagy/lysosomal genes in the brain (real-time PCR) ([1]; short-term oral, frontal cortex): up-regulated
- passage of the blood-brain barrier (BBB) [2]: can pass
- LD50 [3]: 175 mg/kg
